This note sets out measurements from patent US20060276393A1, “Novel compositions for preventing and treating neurodegenerative and blood coagulation disorders” (Sirtris Pharmaceuticals, Inc., priority 2005, published 2006).

One experiment addresses T1, recombinant human SIRT1 (Homo sapiens, UniProt Q96EB6).
T1 sequence (Q96EB6 1-747): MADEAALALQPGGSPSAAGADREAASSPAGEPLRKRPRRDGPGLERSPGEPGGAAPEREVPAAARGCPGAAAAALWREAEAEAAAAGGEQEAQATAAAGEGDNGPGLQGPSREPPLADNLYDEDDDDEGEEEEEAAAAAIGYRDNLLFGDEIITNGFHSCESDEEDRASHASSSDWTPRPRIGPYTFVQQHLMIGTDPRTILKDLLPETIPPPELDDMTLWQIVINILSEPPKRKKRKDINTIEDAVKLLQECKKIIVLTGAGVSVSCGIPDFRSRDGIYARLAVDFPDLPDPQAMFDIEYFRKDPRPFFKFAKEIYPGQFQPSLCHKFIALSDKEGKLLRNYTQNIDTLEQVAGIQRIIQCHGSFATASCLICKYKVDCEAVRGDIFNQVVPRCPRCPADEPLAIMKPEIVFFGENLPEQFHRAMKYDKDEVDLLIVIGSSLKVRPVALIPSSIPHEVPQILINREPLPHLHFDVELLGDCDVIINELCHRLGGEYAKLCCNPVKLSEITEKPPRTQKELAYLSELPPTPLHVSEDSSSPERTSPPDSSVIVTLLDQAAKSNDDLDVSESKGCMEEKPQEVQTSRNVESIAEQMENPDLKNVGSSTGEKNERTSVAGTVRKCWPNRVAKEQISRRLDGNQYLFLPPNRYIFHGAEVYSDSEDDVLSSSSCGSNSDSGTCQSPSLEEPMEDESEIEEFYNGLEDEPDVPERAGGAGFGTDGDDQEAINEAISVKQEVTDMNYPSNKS
Kind of experiment: SIRT1 fluorescent deacetylation assay (p53-382 acetylated peptide). Type of experiment: biochemical.

The subject of the next experiment is S. cerevisiae. In words: Yeast replicative lifespan. In kind it is cell-based. Particulars: for Average lifespan, growth on resveratrol: wild type untreated 21.0.
[1] abbreviates: 25 μM NAD+, 25 μM p53-382 acetylated peptide.

Each structure is given as a SMILES string. Like-named read-outs stand apart in the source and are kept apart here.

For `Oc1ccc(/C=C/c2cc(O)cc(O)c2)cc1` [Resveratrol, 3,5,4′-Trihydroxy-trans-stilbene], the “apparent Km for NAD+ and acetylated substrate in presence of nicotinamide” value at recombinant human SIRT1 (5 μM resveratrol, 50 μM nicotinamide) is recorded as “raised”. Also, on recombinant human SIRT1 (setting [1]), the “concentration at which the activating effect doubled the rate” value is approximately 11 µM and the “concentration at which the activating effect was essentially saturated” value came to 100 µM. Besides, the “SIRT1 stimulating activity (in words)” value at recombinant human SIRT1 (25 μM NAD+, 25 μM p53-382 acetylated peptide, compounds at 100 μM) is given as “most active compound overall”. The “effect on the two Vmax determinations” value at recombinant human SIRT1 (100 μM resveratrol) is “no significant effect”. Further, the “lowering of Km for NAD+” value on recombinant human SIRT1 (100 μM resveratrol, 1 mM acetylated peptide) is on record as “over 5 fold”. In addition, on recombinant human SIRT1 (100 μM resveratrol, 1 mM p53-382 acetylated peptide), the “Vmax (+resveratrol), NAD+ varied” value is given as 1749 AFU/min. For the same compound, on recombinant human SIRT1 (100 μM resveratrol, 3 mM NAD+), the “Vmax (+resveratrol), acetylated peptide varied” value was 926 AFU/min and the “decrease of acetylated peptide Km” value is on record as 35 fold. In addition, at recombinant human SIRT1 (20 and 100 μM resveratrol, 50 μM nicotinamide), the “Km for NAD+ and acetylated peptide in presence of nicotinamide” value is “lowers the Km for both NAD^+ and acetylated peptide”. The Km (in general, the concentration of substrate that gives half-maximal velocity) on recombinant human SIRT1 (read-out: Km for NAD+ (+resveratrol), 100 μM resveratrol, 1 mM p53-382 acetylated peptide) was found to be 101 µM. The Km at recombinant human SIRT1 (read-out: Km for p53-382 acetylated peptide (+resveratrol), 100 μM resveratrol, 3 mM NAD+) came out at 1.8 µM. In the experiment with S. cerevisiae (10 μM), the “increase of average lifespan” value is reported as 70%; the “maximum lifespan (in words)” value is recorded as “significantly increased maximum lifespan”; the “Average lifespan, growth on resveratrol” value was 35.7 generations. Moreover, the Average lifespan in the experiment on S. cerevisiae (10 μM compound, 2% glucose medium, wild type untreated 22.9) stood at 36.8 generations. For the same compound, the “Average lifespan, growth on resveratrol” value with S. cerevisiae (100 μM) is 29.4 generations. Also, the “Average lifespan, growth on resveratrol” value in the experiment on S. cerevisiae (500 μM) stood at 29.3 generations. Moreover, the “Average lifespan, glucose-restricted+resveratrol (CR+R)” value with S. cerevisiae (glucose restriction) is listed as 39.9 generations. For the same compound, the “Average lifespan, pnc1Δ+resveratrol” value in the experiment on S. cerevisiae (pnc1Δ untreated 19.2) is given as 33.1 generations. Besides, the “Average lifespan, sir2Δ+resveratrol” value with S. cerevisiae (sir2Δ untreated 9.9) was determined as 10.0 generations. Moreover, the “Average lifespan, wild type+resveratrol (wt+R)” value in the experiment on S. cerevisiae (wild type untreated 19.0) was found to be 37.8 generations.
